Assay results from patent US11267825B2 (AICURIS GMBH & CO. KG, priority 2017, dated 2022).

Columns and labels:
HBV core protein = HBV core protein (UniProt P03146); assay type: biochemical; conditions: read-out: Assembly Activity (IC50); BODIPY-FL labelled core protein, assembly started with NaCl, read after 6 min
Summary of the method: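 Compounds tested at 8 concentrations in 0.5-log steps from 100, 31.6 or 10 μM against 1.0–2.0 μM BODIPY-FL-labelled Cys150 core dimers (residues 1–149), 50 mM HEPES pH 7.5. NaCl ([…] final) triggered assembly; quenching read at 6 min, 477/525 nm, with 2.5 M and 0 M NaCl as controls; EC50 by nonlinear fit.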

HBV = assay: Determination of HBV DNA from the supernatants of HepAD38 cells (anti-HBV activity); assay type: cell-based, hepatitis B virus; conditions: Hepatitis B virus, 144 h; HBV DNA in HepAD38 supernatant at day 6; read-out: Cell Activity (EC50)
Summary of the method: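 EC50 values were obtained by non-linear regression of HBV DNA copy numbers measured by qPCR against pCH-9/3091 plasmid standards. The DNA came from filtered supernatants collected on day 6. Before that, tetracycline-withdrawn HepAD38 cells had been exposed to serial half-log compound dilutions, with tetracycline-treated cells as the non-producing control.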

Sequence of HBV core protein (P03146 whole entry, looked up, the tested form may be a part): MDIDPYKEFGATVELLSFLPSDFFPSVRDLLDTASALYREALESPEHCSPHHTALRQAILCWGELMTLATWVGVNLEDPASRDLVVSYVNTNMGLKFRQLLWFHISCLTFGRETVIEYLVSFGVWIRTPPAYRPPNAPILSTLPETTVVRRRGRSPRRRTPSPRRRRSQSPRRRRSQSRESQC

Row | Compound | IC50 (HBV core protein) | EC50 (HBV)
1 | Cc1ccc2cc(C(=O)N3CCc4nc(N)sc4C3)[nH]c2c1 [Example 150, 5-(6-methyl-1H-indole-2-carbonyl)-4H,5H,6H,7H-[1,3]thiazolo[5,4-c]pyridin-2-amine] | < 5 µM | < 1 µM
2 | COc1nc2c(s1)CN(C(=O)c1cc3ccccc3[nH]1)CC2 [Example 151, 2-{2-methoxy-4H,5H,6H,7H-[1,3]thiazolo[5,4-c]pyridine-5-carbonyl}-1H-indole] | < 100 µM | 1 to 10 µM
3 | CCOc1nc2c(s1)CN(C(=O)c1cc3ccccc3[nH]1)CC2 [Example 152, 2-{2-ethoxy-4H,5H,6H,7H-[1,3]thiazolo[5,4-c]pyridine-5-carbonyl}-1H-indole] | < 100 µM | 1 to 10 µM
4 | COc1cccc2cc(C(=O)N3CCc4nc(N)sc4C3)[nH]c12 [Example 153, 5-(7-methoxy-1H-indole-2-carbonyl)-4H,5H,6H,7H-[1,3]thiazolo[5,4-c]pyridin-2-amine] | < 100 µM | < 100 µM
5 | Nc1nc2c(s1)CN(C(=O)c1cc3cccc(Cl)c3[nH]1)CC2 [Example 154, 5-(7-chloro-1H-indole-2-carbonyl)-4H,5H,6H,7H-[1,3]thiazolo[5,4-c]pyridin-2-amine] | < 5 µM | < 1 µM
6 | Nc1nc2c(s1)CN(C(=O)c1cc3cc(Cl)ccc3[nH]1)CC2 [Example 155, 5-(5-chloro-1H-indole-2-carbonyl)-4H,5H,6H,7H-[1,3]thiazolo[5,4-c]pyridin-2-amine] | < 5 µM | 1 to 10 µM
7 | Nc1nc2c(s1)CN(C(=O)c1cc3ccc(Cl)cc3[nH]1)CC2 [Example 156, 5-(6-chloro-1H-indole-2-carbonyl)-4H,5H,6H,7H-[1,3]thiazolo[5,4-c]pyridin-2-amine] | < 5 µM | < 1 µM
8 | O=C(c1cc2ccccc2[nH]1)N1CCc2nc(NCCO)sc2C1 [Example 157, 2-{[5-(1H-indole-2-carbonyl)-4H,5H,6H,7H-[1,3]thiazolo[5,4-c]pyridin-2-yl]amino}ethan-1-ol] | < 5 µM | < 1 µM
9 | O=C(c1cc2ccccc2[nH]1)N1CCc2nc(OCc3ccccc3)sc2C1 [Example 158, 2-[2-(benzyloxy)-4H,5H,6H,7H-[1,3]thiazolo[5,4-c]pyridine-5-carbonyl]-1H-indole] | < 100 µM | 1 to 10 µM
10 | Nc1nc2c(s1)CN(C(=O)c1cc3cc(F)c(F)cc3[nH]1)CC2 [Example 159, 5-(5,6-difluoro-1H-indole-2-carbonyl)-4H,5H,6H,7H-[1,3]thiazolo[5,4-c]pyridin-2-amine] | < 5 µM | < 1 µM
11 | Nc1nc2c(s1)CN(C(=O)c1cc3cc(F)cc(F)c3[nH]1)CC2 [Example 160, 5-(5,7-difluoro-1H-indole-2-carbonyl)-4H,5H,6H,7H-[1,3]thiazolo[5,4-c]pyridin-2-amine] | < 5 µM | < 1 µM
12 | Cc1nc2c(s1)CN(C(=O)c1cc3cc(Cl)ccc3[nH]1)CC2 [Example 161, 5-chloro-2-{2-methyl-4H,5H,6H,7H-[1,3]thiazolo[5,4-c]pyridine-5-carbonyl}-1H-indole] | 5 to 10 µM | 1 to 10 µM
13 | Cc1nc2c(s1)CN(C(=O)c1cc3ccc(Cl)cc3[nH]1)CC2 [Example 162] | < 5 µM | < 1 µM
14 | Cc1nc2c(s1)CN(C(=O)c1cc3cc(F)cc(F)c3[nH]1)CC2 [Example 163] | < 5 µM | < 1 µM
15 | Cc1nc2c(s1)CN(C(=O)c1cc3cc(F)c(F)cc3[nH]1)CC2 [Example 164] | < 5 µM | < 1 µM
16 | Cc1nc2c(s1)CN(C(=O)c1cc3c(F)cc(Cl)cc3[nH]1)CC2 [Example 165] | < 5 µM | 1 to 10 µM
17 | O=C(c1cc2ccccc2[nH]1)N1CCc2nc(N3CCOCC3)sc2C1 [Example 166, 2-[2-(morpholin-4-yl)-4H,5H,6H,7H-[1,3]thiazolo[5,4-c]pyridine-5-carbonyl]-1H-indole] | < 100 µM | 1 to 10 µM
18 | Nc1nc2c(s1)CN(C(=O)c1cc3c(Cl)cc(F)cc3[nH]1)CC2 [Example 167, 5-(4-chloro-6-fluoro-1H-indole-2-carbonyl)-4H,5H,6H,7H-[1,3]thiazolo[5,4-c]pyridin-2-amine] | < 5 µM | < 1 µM
19 | Nc1nc2c(s1)CN(C(=O)c1cc3c(Cl)cc(Cl)cc3[nH]1)CC2 [Example 168, 5-(4,6-dichloro-1H-indole-2-carbonyl)-4H,5H,6H,7H-[1,3]thiazolo[5,4-c]pyridin-2-amine] | < 5 µM | < 1 µM

Row | Compound | IC50 (HBV core protein) | EC50 (HBV)
20 | Cc1cc(F)cc2[nH]c(C(=O)N3CCc4nc(N)sc4C3)cc12 [Example 169, 5-(6-fluoro-4-methyl-1H-indole-2-carbonyl)-4H,5H,6H,7H-[1,3]thiazolo[5,4-c]pyridin-2-amine] | < 5 µM | < 1 µM
21 | Nc1nc2c(s1)CN(C(=O)c1cc3c(F)ccc(F)c3[nH]1)CC2 [Example 170, 5-(4,7-difluoro-1H-indole-2-carbonyl)-4H,5H,6H,7H-[1,3]thiazolo[5,4-c]pyridin-2-amine] | < 5 µM | < 1 µM
22 | Nc1nc2c(s1)CN(C(=O)c1cc3cccc(Br)c3[nH]1)CC2 [Example 171, 5-(7-bromo-1H-indole-2-carbonyl)-4H,5H,6H,7H-[1,3]thiazolo[5,4-c]pyridin-2-amine] | < 5 µM | < 1 µM
23 | Nc1nc2c(s1)CN(C(=O)c1cc3c(F)c(F)ccc3[nH]1)CC2 [Example 172, 5-(4,5-difluoro-1H-indole-2-carbonyl)-4H,5H,6H,7H-[1,3]thiazolo[5,4-c]pyridin-2-amine] | < 5 µM | < 1 µM
24 | Nc1nc2c(s1)CN(C(=O)c1cc3cccc(OC(F)F)c3[nH]1)CC2 [Example 173, 5-(7-(difluoromethoxy)-1H-indole-2-carbonyl)-4H,5H,6H,7H-[1,3]thiazolo[5,4-c]pyridin-2-amine] | < 5 µM | 1 to 10 µM
25 | Nc1nc2c(s1)CN(C(=O)c1cc3cccc(OC(F)(F)F)c3[nH]1)CC2 [Example 174, 5-(7-(trifluoromethoxy)-1H-indole-2-carbonyl)-4H,5H,6H,7H-[1,3]thiazolo[5,4-c]pyridin-2-amine] | < 5 µM | 1 to 10 µM
26 | Nc1nc2c(s1)CN(C(=O)c1cc3c(Cl)c(Cl)ccc3[nH]1)CC2 [Example 176, 5-(4,5-dichloro-1H-indole-2-carbonyl)-4H,5H,6H,7H-[1,3]thiazolo[5,4-c]pyridin-2-amine] | 5 to 10 µM | 1 to 10 µM
27 | Nc1nc2c(s1)CN(C(=O)c1cc3c(Cl)ccc(Cl)c3[nH]1)CC2 [Example 177, 5-(4,7-dichloro-1H-indole-2-carbonyl)-4H,5H,6H,7H-[1,3]thiazolo[5,4-c]pyridin-2-amine] | < 100 µM | < 100 µM
28 | CC(O)CNc1nc2c(s1)CN(C(=O)c1cc3ccccc3[nH]1)CC2 (centres unmarked) [Example 178, 1-{[5-(1H-indole-2-carbonyl)-4H,5H,6H,7H-[1,3]thiazolo[5,4-c]pyridin-2-yl]amino}propan-2-ol] | < 5 µM | < 1 µM
29 | NCCNc1nc2c(s1)CN(C(=O)c1cc3ccccc3[nH]1)CC2 [Example 179, N1-[5-(1H-indole-2-carbonyl)-4H,5H,6H,7H-[1,3]thiazolo[5,4-c]pyridin-2-yl]ethane-1,2-diamine] | 5 to 10 µM | 1 to 10 µM
30 | O=C(c1cc2ccccc2[nH]1)N1CCc2nc(NC3CCOC3)sc2C1 (centres unmarked) [Example 180, 5-(1H-indole-2-carbonyl)-N-(oxolan-3-yl)-4H,5H,6H,7H-[1,3]thiazolo[5,4-c]pyridin-2-amine] | < 5 µM | < 1 µM
31 | CN1CCN(CCNc2nc3c(s2)CN(C(=O)c2cc4ccccc4[nH]2)CC3)CC1 [Example 181, 5-(1H-indole-2-carbonyl)-N-[2-(4-methylpiperazin-1-yl)ethyl]-4H,5H,6H,7H-[1,3]thiazolo[5,4-c]pyridin-2-amine] | < 5 µM | 1 to 10 µM
32 | Cc1nc2c(s1)CN(C(=O)c1cc3cccc(OC(F)F)c3[nH]1)CC2 [Example 182, 7-(difluoromethoxy)-2-{2-methyl-4H,5H,6H,7H-[1,3]thiazolo[5,4-c]pyridine-5-carbonyl}-1H-indole] | < 100 µM | 1 to 10 µM
33 | Cc1nc2c(s1)CN(C(=O)c1cc3cccc(OC(F)(F)F)c3[nH]1)CC2 [Example 183, 2-{2-methyl-4H,5H,6H,7H-[1,3]thiazolo[5,4-c]pyridine-5-carbonyl}-7-(trifluoromethoxy)-1H-indole] | < 100 µM | < 100 µM
34 | Cc1nc2c(s1)CN(C(=O)c1cc3c(C)cccc3[nH]1)CC2 [Example 184, 4-methyl-2-{2-methyl-4H,5H,6H,7H-[1,3]thiazolo[5,4-c]pyridine-5-carbonyl}-1H-indole] | < 5 µM | < 1 µM
35 | Cc1nc2c(s1)CN(C(=O)c1cc3c(Cl)c(Cl)ccc3[nH]1)CC2 [Example 185, 4,5-dichloro-2-{2-methyl-4H,5H,6H,7H-[1,3]thiazolo[5,4-c]pyridine-5-carbonyl}-1H-indole] | < 100 µM | < 100 µM
36 | Cc1nc2c(s1)CN(C(=O)c1cc3c(Cl)ccc(Cl)c3[nH]1)CC2 [Example 186, 4,7-dichloro-2-{2-methyl-4H,5H,6H,7H-[1,3]thiazolo[5,4-c]pyridine-5-carbonyl}-1H-indole] | < 100 µM | < 100 µM
37 | Cc1nc2c(s1)CN(C(=O)c1cc3c(Cl)cc(F)cc3[nH]1)CC2 [Example 187, 4-chloro-6-fluoro-2-{2-methyl-4H,5H,6H,7H-[1,3]thiazolo[5,4-c]pyridine-5-carbonyl}-1H-indole] | < 5 µM | < 1 µM
